# Experiments:
# IMR-32 nAChR [1] = type: binding, human; conditions: IMR-32 nAChR entrapped in DGS; constant 3H-epibetadine; FIG. 10
# Procedure: Sodium silicate or DGS derived sol precursors were prepared by methods described previously.^64 The sol solution was mixed 1:1 (v/v) with the buffered liposome or reconstituted nAChR solution, in the bottoms of 96 well microtiter plates to a final volume of 100 μL. For entrapment of IMR-32 cells for ion flux assays, the nAChR containing stock described above was uses for entrapment without further dilution. For radioassays using IMR-32 nAChR, the stock sample as provided directly from Perkin Elmer was diluted four fold in 25 mM HEPES, 100 mM KCl, 5 mM EGTA, pH 7.4 and mixed 1:1 (v/v) in DGS derived sol. The samples were aged for 1 hr at 4° C. For Torpedo Californica nAChR, the stock sample was diluted four fold in 150 mM HEPES, 100 mM KCl, 5 mM EDTA, pH 7.4, and mixed 1:1 (v/v) with sodium silicate derived sol.
# Samples of either entrapped Torpedo californica nAChR, IMR-32 nAChR or Asolectin liposomes were formed in the bottoms of 96-well microtiter plates. […] The radioactive decay from ^3H-epibatidine was then counted for 5 min to determine the ratio of free ligand existing in solution. […] Using the information from these samples the amount of receptor bound ligand could be determined. […] Free ligand was determined as described above.
# gramicidin A = assay: Safranine O ion-channel activity assay of reconstituted gramicidin A entrapped in DGS derived silicate; type: biochemical; conditions: various levels of CaCl2 with 3.0 M KI; several hundred millimolar Ca2+ required; FIG. 6
# Procedure: The Gramicidin A stock was prepared in a solution of chloroform, trifluoroethanol and dimethylsulfoxide (19:5:1 volume ratio) to a final concentration of 4.79×10^−4M. Gramicidin A stock solutions were mixed with the lipid stock solutions (20 mg.mL^−1 DOPC in chloroform) in disposable glass vials to provide final ratios of gA:lipid of either 0.39 mol % or 0.94 mol %. The organic solvent was removed by evaporation under a dry nitrogen gas stream to remove the bulk of the organic solvent, followed by evaporation under vacuum for two hours. […]
# For ion-channel studies, reconstitution of gramicidin A samples was done using an unbuffered aqueous solution containing 50 μM safranine O at pH 7.0. […] Liposome solutions that were used for tryptophan fluorescence studies consisted of 0.94 mol % of gramicidin A in DOPC that was hydrated to final concentrations of 1.0 μM of gA in 100 mM phosphate buffer at pH 7.0. […]
# The fluorescence intensity response of safranine O was monitored using the MICROMAX microwell plate reader. Fluorescence emission was monitored as a function of time at 565 nm with an excitation wavelength of 528 nm upon addition of 125 μL of various concentrations of potassium iodide to the top of the monolithic samples in the microwell plate to create an ionic gradient across the membrane. […]
# IMR-32 nAChR [2] = type: biochemical, human
# Procedure: Lipid films consisting of EggPC, EggPE, Sphingomylin and cholesterol in mol ratios of 55:27:9:9 percent, respectively, were prepared as described earlier, and rehydrated to a final lipid concentration of 3.0 mg/mL and Fluo-3 concentration of 65 μM. The liposome stock was then mixed with a small amount of DMM bringing the solution to a final concentration of 0.2 mM. Immediately following this, IMR-32 nAChR stock was added to the detergent lipid mixture and allowed to incubate at 4° C. for 90 min. Following this 15 mg of SM2-Biobeads were added to the mixture and incubated for 1 hr. This was repeated 3 times with the final addition allowed to incubate for a period of 12 hrs. […]
# In these assays, IMR-32 nAChR containing liposomes with an intraliposomal solution of Fluo-3 were entrapped as described above in 1:1 (v/v) in DGS derived silica. […] Antagonism of the nAChR ion channel was measured by addition of 25 μL of the nAChR antagonist d-tubocurarine to the top of the nAChR-containing monolith in the 96-well plate. Ligand-gated ion-flux was monitored through time dependent changes in fluorescence intensity upon the addition of 50 μL of 3 M CaCl2 using a TECAN-Safire microwell platereading fluorescence system. Fluo-3 emission was monitored and 526 nm with an excitation wavelength of 488 nm, emission and excitation bandpasses of 5 and 7.5 nm, and a detector gain of 130 V, over a period of 45 min. […]
# [3] = Fluo-3 Ca(II) influx into DOPC liposomes in buffered solution after addition of ionophore; type: biochemical; conditions: Ca(II) outside, fluo-3 inside, FIG. 14
# Procedure: DOPC stock solutions were purchased in chloroform at a concentration of 20 mg.mL^−1. DOPC stock solution was dispensed in disposable glass vials and the organic solvent was removed by evaporation under a dry nitrogen gas stream to remove the bulk of the organic solvent, followed by evaporation under vacuum for two hours. The resulting dried lipid films were then rehydrated in a buffer consisting of 25 mM EGTA, 25 mM EDTA, 10% Sucrose (w/w), 10 mM KCl, 0.529 mM Fluo-3, pH 7.6 to a final lipid concentration of 2 mg/mL. The hydrated liposomes were then extruded through 600 nm pores, with an Avanti—MINIEXTRUDER at room temperature to create a mono-disperse suspension of unilamellar liposomes 600 nm in diameter. The external Fluo-3 was removed by filtration through a column packed with Sephadex G25 to yield liposomes with dye only on the interior of the liposome.
# In this case, Ca(II) is initially present only outside the liposome, while fluo-3 is present only inside the liposome. The addition of ionomycin results in the incorporation of the ionophore into the membrane, and produces a channel through which Ca(II) can move into the interior of the liposome. […]
structure (smiles),measurement,setting,value
"CN1CCCC1c1cccnc1 (single isomer, unassigned; (-)) [nicotine, (−)-nicotine]",IC50 and KI values compared with solution based experiments,IMR-32 nAChR [1],in good agreement with those obtained from solution based experiments
[Ca+2].[Cl-].[Cl-] [CaCl2],potential induced fluorescence response to potassium ion flux (inhibition of ion-channel activity),gramicidin A,significant and concentration-dependent decrease
O=c1cccc2n1C[C@@H]1CNC[C@H]2C1 [cytisine],fluo-3 emission response to Ca(II) (ion flux) upon addition of agonist,IMR-32 nAChR [2],acts as an agonist
COc1cc2c3cc1Oc1cc(ccc1O)C[C@@H]1c4c(cc(OC)c(O)c4Oc4ccc(cc4)C[C@@H]3N(C)CC2)CC[N+]1(C)C [d-tubocurarine],fluo-3 emission response to Ca(II) (ion flux) upon addition of antagonist,"IMR-32 nAChR [2]; liposomes previously incubated with excess nicotine, FIG. 12",the response is reduced
same,IC50 and KI values compared with solution based experiments,IMR-32 nAChR [1],in good agreement with those obtained from solution based experiments
C[C@H](CCC(=O)O)C[C@H](C)C[C@H](C)C(=O)/C=C(\O)[C@H](C)C[C@H](C)C/C=C/[C@@H](C)[C@@H](O)[C@@H](C)[C@@H](O)C[C@@H]1CC[C@@](C)([C@H]2CC[C@@](C)([C@@H](C)O)O2)O1 [ionomycin],increase of fluo-3 response on Ca(II) influx,[3],3 fold

# From patent US20050032246A1, “Method of immobilizing membrane-associated molecules” (priority 2002, published 2005)
